{
  "source": "EPA's ToxValDB 9.5 (doi:10.2903/j.efsa.2017.4852)",
  "key": {"Apis mellifera": {"system": "Apis mellifera", "settings": "acute, mortality"}, "Bibionidae": {"system": "Bibionidae", "settings": "chronic/long-term; duration: 28 days"}, "Mus musculus": {"system": "Mus musculus", "settings": "acute; oral; mortality"}, "Tagia sp.": {"system": "Tagia sp.", "settings": "chronic/long-term; reproduction"}, "Folsomia candida": {"system": "Folsomia candida", "settings": "chronic/long-term; reproduction"}, "Anas platyrhynchos": {"system": "Anas platyrhynchos", "settings": "acute; oral; unspecified; mortality"}, "Oryctolagus sp.": {"system": "Oryctolagus sp.", "settings": "developmental; development"}, "Chrysoperla externa": {"system": "Chrysoperla externa", "assay": "LR50; higher = less toxic", "settings": "not reported; mortality"}},
  "data": [
    {"smiles": "CC#Cc1cc(C)nc(Nc2ccccc2)n1", "note": "[Mepanipyrim]", "values": [
      {"measurement": "LD50", "setting": "Apis mellifera; dermal", "value": "> 80", "unit": "µg/piece"},
      {"measurement": "LD50", "setting": "Apis mellifera; oral, unspecified", "value": "> 50", "unit": "µg/piece"},
      {"measurement": "NOEC", "setting": "Bibionidae", "value": 4.67, "unit": "mg/kg"},
      {"measurement": "LD50", "setting": "Rattus norvegicus; acute, oral, mortality", "value": "> 2650", "unit": "mg/kg-day"},
      {"measurement": "LOAEL", "setting": "Rattus norvegicus; chronic, morphology", "value": 2.45, "unit": "mg/kg-day"},
      {"measurement": "LOAEL", "setting": "Rattus norvegicus; reproduction developmental, histopathology: nonneoplastic", "value": 2.45, "unit": "mg/kg-day"},
      {"measurement": "LD50", "setting": "Mus musculus", "value": "> 2650", "unit": "mg/kg-day"},
      {"measurement": "LD50", "setting": "Colinus virginianus; acute, oral, mortality", "value": "> 2250", "unit": "mg/kg-day"},
      {"measurement": "NOEC", "setting": "Colinus virginianus; reproduction developmental, reproduction", "value": 100, "unit": "mg/kg-day"},
      {"measurement": "NOEC", "setting": "Tagia sp.", "value": 113, "unit": "mg/kg"},
      {"measurement": "NOEC", "setting": "Folsomia candida", "value": 58.4, "unit": "mg/kg"},
      {"measurement": "LD50", "setting": "Anas platyrhynchos", "value": "> 2250", "unit": "mg/kg-day"},
      {"measurement": "NOAEL", "setting": "Oryctolagus sp.", "value": 10, "unit": "mg/kg-day"},
      {"measurement": "LR50", "setting": "Chrysoperla externa", "value": "> 500", "unit": "g/ha"}
    ]}
  ]
}
